Structures are written as SMILES. Converted amounts (≈) assume the structure as drawn.

The conditions of the data set: buffer; pH 7.4; 200.0 µM.
In general, solubility (kinetic) refers to the concentration staying in solution when a stock, usually in DMSO, is diluted into the medium. For the compound `CC(C)(C)CN1CCN(CC#Cc2ccccc2)CC1CCO` (stereo not drawn), the solubility (kinetic) was > 47.2 µg/mL. The result for `Cc1cccc(CC(=O)NC2CCN(C)CC2)c1` reads > 37 µg/mL; that for `Cc1ccc(NC(=O)CN(C)CCOc2ccccc2)c([N+](=O)[O-])c1`, < 0.2 µg/mL; that for `O=c1c2[nH]c3ccc(F)cc3c2ncn1Cc1ccncc1`, 3.3 µg/mL (≈ 11.2 µM). To `CC(NC(=O)Cc1ccsc1)c1ccc(F)cc1` (stereo not drawn) belongs > 39.5 µg/mL.

`CC(C)Oc1cccc(C(=O)C2CCCN(C(=O)c3ccsc3)C2)c1` (stereo not drawn) displayed a kinetic solubility of 44.8 µg/mL (≈ 125 µM). To `COc1cc(CC(=O)N(CC(C)C)C2CCS(=O)(=O)C2)cc(OC)c1OC` (stereo not drawn) belongs > 59.9 µg/mL; to `COc1ccc(Cl)cc1C(=O)Nc1cccc2ncccc12`, 2.2 µg/mL (≈ 7.03 µM). To `O=C(Nc1cccc([N+](=O)[O-])c1)Nc1cnccn1` belongs 1.2 µg/mL (≈ 4.63 µM); to `O=C(CSc1nnc(NC(=O)c2ccccc2F)s1)NC1CC1`, > 52.9 µg/mL; to `Cc1ccc2nsnc2c1NC(=O)c1ccc([N+](=O)[O-])o1`, > 45.6 µg/mL. The result for `O=C(O)c1ccc(/C=N/NC(=S)NCCN2CCOCC2)cc1` reads > 50.5 µg/mL; that for `O=C(COc1ccccc1)NCC(=O)N1CCCCCC1`, > 43.6 µg/mL; that for `Cc1cc(OCC(=O)Nc2ccccc2C)no1`, > 36.9 µg/mL.

Take `O=C(NCC(=O)N1CCN(c2ccccc2F)CC1)c1ccco1`: the solubility (kinetic) is > 49.7 µg/mL. To `O=c1[nH]c(=S)[nH]c2sc3c(c12)CCCCCC3` belongs 26.2 µg/mL (≈ 98.4 µM); to `O=C(Nc1cccnc1)Nc1cccc([N+](=O)[O-])c1`, 10 µg/mL (≈ 38.7 µM); to `COc1ccc(N2C(=O)c3ccccc3C(C)(C)C2=O)cc1`, 5.4 µg/mL (≈ 18.3 µM). To `CCC(C)[C@H](NC(=O)NCc1ccc(F)cc1)C(=O)O` (stereo partly drawn) belongs > 42.3 µg/mL; to `CN1C(=O)C(CC(=O)NC2CCCCC2)N(C)C1=O` (stereo not drawn), > 40.1 µg/mL; to `Nc1ccccc1Sc1ccc(C(F)(F)F)cc1[N+](=O)[O-]`, 5.6 µg/mL (≈ 17.8 µM). The result for `CCOc1ccc(NC(=O)Nc2ccon2)cc1` reads 36.9 µg/mL (≈ 149 µM); that for `Cc1noc(C)c1COc1cccc(C(=O)NC(C)(C)C)c1`, > 45.4 µg/mL; that for `CC(C)CC(=O)N1CCN(Cc2ccccc2Cl)CC1`, 30.7 µg/mL (≈ 104 µM). As to `CCN(Cc1ccncc1)C(=O)c1cccc(S(=O)(=O)N2CCCCC2)c1`, the solubility (kinetic) was > 58.1 µg/mL.

For `CCc1c(C)sc(NC(=S)Nc2nc(C)cc(C)n2)c1C(=O)OC`, the kinetic solubility is < 0.2 µg/mL.

Consider `Cc1cc(C(=O)OCC(=O)NC(C)C)c2ccccc2n1`, for which the kinetic solubility was > 42.9 µg/mL. The result for `COc1ccc(C(=O)ON=C2CCN(C)CC2)cc1.Cl` reads > 44.8 µg/mL. To `Cc1ccc(CNc2nc(N)c([N+](=O)[O-])c(NCCO)n2)cc1` belongs 43.4 µg/mL (≈ 136 µM). To `COC(=O)c1c(SCC(=O)Nc2ccc(C)cc2)nc(=O)[nH]c1C` belongs 8.4 µg/mL (≈ 24.2 µM); to `O=C(O)CCC(=O)N1CCN(Cc2ccc3c(c2)OCO3)CC1`, 28.1 µg/mL (≈ 87.7 µM).

Take `CCn1cc(S(=O)(=O)NC2CCCCC2)cn1`: the kinetic solubility was > 38.6 µg/mL. For the compound `O=C(c1cc(-c2cccc(Cl)c2)on1)N1CCCCCC1`, the solubility (kinetic) was found to be 14 µg/mL (≈ 45.9 µM).

Compound `Cc1cccc[n+]1CC(=O)Nc1ccccc1.[Cl-]` displayed a solubility (kinetic) of 26.6 µg/mL. To `N#CN=C(c1ccccc1)c1ccccc1` belongs 30.4 µg/mL (≈ 147 µM).

On to `COc1ccc(Cl)cc1NC(=S)NCCO`, for which the kinetic solubility is > 39.1 µg/mL. To `CC(=O)Nc1ccc(C(=O)OCC(=O)NCc2ccc3c(c2)OCO3)cc1` belongs 8.1 µg/mL (≈ 21.9 µM). Turning to `Cc1nn(C(=O)/C(C#N)=C/N(C)C)c(C)c1C`, the kinetic solubility was > 34.8 µg/mL. On to `Cc1noc(C)c1C(=O)Nc1nc2ccc(F)cc2s1`, for which the solubility (kinetic) is 22.2 µg/mL (≈ 76.2 µM).

As for `O=C(Nc1ccccc1N1CCCCC1)c1ccc(Cl)cc1`, the kinetic solubility was 1.5 µg/mL (≈ 4.76 µM).

As to `Cc1ccccc1C(=O)NCC(=O)NC1CC1`, the solubility (kinetic) was > 34.8 µg/mL. To `Cl.OC(c1ccc(Cl)cc1)c1nccc2ccccc12` (stereo not drawn) belongs 31.1 µg/mL; to `O=C(c1ccc([N+](=O)[O-])cc1)c1cc2ccc(O)cc2oc1=O`, 2 µg/mL (≈ 6.43 µM); to `Cc1ccc(S(=O)(=O)/N=C(/c2ccccc2)N(C)C)c(C)c1`, > 47.5 µg/mL. The result for `CSc1cccc(NC(=O)COC(=O)C2(c3ccccc3)CC2)c1` reads 10.7 µg/mL (≈ 31.3 µM); that for `CC1CCN(S(=O)(=O)c2cccc(C(=O)Nc3ccccc3)c2)CC1`, 1.3 µg/mL (≈ 3.63 µM); that for `Cc1cc(C)nc(SC(C)CNS(=O)(=O)c2ccccc2)n1` (stereo not drawn), 45.9 µg/mL (≈ 136 µM). The result for `O=C(CN1C(=O)C(=O)c2ccccc21)c1ccccc1` reads 33.8 µg/mL (≈ 127 µM).

Consider `CCOC(=O)N1CCN(C(=O)COC(=O)c2ccc(N(C)C)cc2)CC1`, for which the solubility (kinetic) is > 54.5 µg/mL. To `CN(C)/C=C(\C#N)S(=O)(=O)c1ccccc1` belongs > 35.4 µg/mL. `CCOC(=O)N1CCN(C(=S)NC(=O)/C=C/c2ccc(C)cc2)CC1` yielded a solubility (kinetic) of 18.1 µg/mL (≈ 50.1 µM). To `Cc1cccc(CSCc2ccc(C(=O)NCC3CCCO3)o2)c1` (stereo not drawn) belongs 46.6 µg/mL (≈ 135 µM); to `CNC(=O)COC(=O)CNC(=O)c1cc(Cl)cc([N+](=O)[O-])c1`, > 49.5 µg/mL; to `COC(=O)CNC(=O)CSc1ccccn1`, > 36 µg/mL. `O=C(OCc1ccc([N+](=O)[O-])cc1Cl)c1cnccn1`: the kinetic solubility is > 44.1 µg/mL. The result for `CCOC(=O)c1cnc(-c2ccccc2)nc1C(F)(F)F` reads < 0.3 µg/mL.

With `Nc1ccccc1-n1c(=O)n(Cc2ccccc2F)c(=O)c2[nH]cnc21`, the solubility (kinetic) stood at 35 µg/mL (≈ 99.6 µM). To `COC(=O)c1ccc(/C=C/C(=O)OCC(=O)NCc2cccs2)cc1` belongs 27.4 µg/mL (≈ 76.2 µM). To `NS(=O)(=O)c1ccc(NC(=O)COC(=O)Cc2c[nH]c3ccccc23)cc1` belongs 37.8 µg/mL (≈ 97.6 µM); to `O=C(COC(=O)C1(c2ccc(Cl)cc2)CCCC1)NCc1ccco1`, 20.7 µg/mL (≈ 57.2 µM); to `S=c1nc(-c2ccccc2)n(Cc2cccnc2)c2c1CCCC2`, > 50 µg/mL.

For `O=C(CN1C(=O)/C(=C2/SC(=S)N(CCS(=O)(=O)O)C2=O)c2ccccc21)Nc1cccc(C(F)(F)F)c1`, the kinetic solubility is 5.9 µg/mL (≈ 10.3 µM).

Turning to `COc1ccc(S(N)(=O)=O)cc1C(=O)OCC(=O)N1CCCC(C)C1` (stereo not drawn), the kinetic solubility was > 55.6 µg/mL. The result for `COC(=O)CN1C(=O)COc2ccc(S(=O)(=O)N3CCCCCC3)cc21` reads 52.4 µg/mL (≈ 137 µM).

Consider `Br.CC(C)CC(N)C(=O)OCc1ccc([N+](=O)[O-])cc1` (stereo not drawn), for which the kinetic solubility was > 52.1 µg/mL. The result for `NC(=S)Nc1ccccc1Br` reads > 34.7 µg/mL. Turning to `CCOc1ccc(C2NC(=O)Cc3cc(OC)c(OC)cc32)cc1` (stereo not drawn), the solubility (kinetic) was > 49.1 µg/mL.

Turning to `Cc1[nH]c2ccccc2c1/C=C/C(=O)c1ccncc1`, the solubility (kinetic) amounted to 0.7 µg/mL (≈ 2.67 µM). To `COc1ccc2sc(NCc3ccccc3)nc2c1` belongs 2 µg/mL (≈ 7.4 µM); to `CN(C)/C=C/C(=O)c1c(F)cccc1F`, 31.4 µg/mL (≈ 149 µM). To `NS(=O)(=O)c1ccc(NC(=O)CSc2nc3ccccc3c(=O)n2Cc2ccncc2)cc1` belongs 8 µg/mL (≈ 16.6 µM); to `O=C(Nc1cccc(S(=O)(=O)N2CCCC2)c1)c1cncc(Br)c1`, 60.4 µg/mL (≈ 147 µM); to `Cc1ccc(S(=O)(=O)NCCc2nc3ccccc3[nH]2)cc1`, 36.3 µg/mL (≈ 115 µM). To `COc1ccccc1Nc1nc(Cl)c(C=O)s1` belongs 12.1 µg/mL (≈ 45 µM); to `O=C(NCCOc1ccccc1F)Nc1ccc(Br)cc1`, 2.1 µg/mL (≈ 5.95 µM). `Cc1ccc(S(=O)(=O)NC2CCCC2)cc1C(N)=O`: the kinetic solubility is > 42.4 µg/mL.

`CCN(c1ccccc1)c1nc(C#N)nc(N(CC)c2ccccc2)n1` gave a solubility (kinetic) of 0.9 µg/mL (≈ 2.61 µM). To `COc1cc(C#N)ccc1OCC(=O)NCCC1=CCCCC1` belongs 3.7 µg/mL (≈ 11.8 µM). Consider `COc1ccc(Br)cc1C(=O)Nc1ccccc1N1CCCC1`, for which the kinetic solubility was < 0.4 µg/mL. The result for `Cc1ccccc1Cn1c(C)nc2ccccc21` reads > 35.4 µg/mL. Consider `COc1ccc(CN2CCOCCOCCOCCOCCOCC2)cc1`, for which the solubility (kinetic) was > 57.5 µg/mL. The result for `CCOc1ccc(-n2c([O-])cc(=O)[nH]c2=O)cc1.[NH4+]` reads 35.2 µg/mL.

As to `O=C(NCc1cccs1)c1cccn2c(=O)c3sccc3nc12`, the kinetic solubility was determined as 0.6 µg/mL (≈ 1.76 µM). Consider `Cc1ccc(NC(=S)N(CCN(C)C)Cc2cccs2)cc1`, for which the kinetic solubility amounted to 12.2 µg/mL (≈ 36.6 µM). This solubility kinetic lies about 20-fold higher than the previous one. To `O=C1Cc2ccccc2C(=O)N1c1cccc(Cl)c1` belongs > 40.8 µg/mL; to `O=C(NC1CCN(C(=O)c2cccs2)CC1)c1ccccc1`, 46.1 µg/mL (≈ 147 µM). To `COC(=O)c1cnc(Oc2c(Cl)cc(N)cc2Cl)cc1C(F)(F)F` belongs 15.3 µg/mL (≈ 40.1 µM); to `O=C(CSc1nc(O)cc(=O)[nH]1)N1CCOCC1`, > 40.7 µg/mL; to `Cl.c1ccc(SCCCCN2CCOCC2)cc1`, 38.2 µg/mL.

In the case of `Cc1ccc(C)c(SCC(=O)Nc2cccnc2Cl)c1`, the kinetic solubility is 2.9 µg/mL (≈ 9.45 µM). The result for `Cc1ccc(NC(=O)CCc2c(C)[nH]c(=O)c(C#N)c2C)cc1` reads 12.3 µg/mL (≈ 39.8 µM). In turn, `COc1ccc(NCc2cc(=O)[nH]c3ccccc23)cc1` yielded a solubility (kinetic) of 8 µg/mL (≈ 28.5 µM).

For the compound `O=C1CCC(C(=O)OCC(=O)Nc2ccc(Cl)cc2C(F)(F)F)=NN1`, the kinetic solubility is > 56.7 µg/mL.

Turning to `O=C1c2cccc3cccc(c23)C(=O)N1c1ccccn1`, the kinetic solubility was 40.4 µg/mL (≈ 147 µM). The result for `O=C(COC(=O)c1ccc(F)c(S(=O)(=O)N2CCOCC2)c1)c1ccccc1` reads 6.3 µg/mL (≈ 15.5 µM); that for `CC(Oc1ccc2c(-c3ccccc3)cc(=O)oc2c1)C(=O)NC(Cc1c[nH]c2ccccc12)C(=O)O` (stereo not drawn), > 74.5 µg/mL; that for `NC(=O)C(c1ccccc1)c1ccc(C(=O)c2ccccc2)cc1` (stereo not drawn), < 0.7 µg/mL. The result for `O=C(Nc1ccccc1)C1CCCN(C(=O)c2ccc(F)cc2)C1` (stereo not drawn) reads > 49 µg/mL. To `O=C(COc1ccccc1)NS(=O)(=O)c1ccccc1` belongs 38.1 µg/mL (≈ 131 µM); to `Cc1c(-c2nc3ccccc3[nH]2)cnn1C`, > 31.8 µg/mL.

In turn, `COc1ccc(C(=O)Nc2ccc3c(c2)n(C)c(=O)n3C)cc1OC` registered a kinetic solubility of 8.4 µg/mL (≈ 24.6 µM). The result for `COCCNCC(=O)N1CCCCCC1.O=C(O)C(=O)O` reads > 45.7 µg/mL; that for `O=C(Nc1ccccc1F)N1CCCC1c1cccnc1` (stereo not drawn), 40.9 µg/mL (≈ 143 µM).

Source of the values: PubChem BioAssay AID1996.
